The values below come from patent US20250145665A1, “MACROCYCLIC PEPTIDES USEFUL AS MODULATORS OF TNF ALPHA” (Bristol-Myers Squibb Company, priority 2023, published 2025).

Starred links: 1 amine or outer side, 2 acyl side, 3 side chain; linkers in the order of their positions; H or OH if unused. Positions of bridges follow the written chain, without caps; N, C: chain ends. Non-standard residues stand in square brackets, D forms with d. Residues, ends and D or L forms follow the SMILES beside them. *: point of attachment. Bip(4'-(3-HOOC-benzamido)) = N[C@@H](Cc1ccc(-c2ccc(NC(=O)c3cccc(C(=O)O)c3)cc2)cc1)C(=O)O; X38 = O=C(O)C1CCC(C(=O)Nc2ccc(-c3ccc(C[C@H](N[*:1])C(=O)[*:2])cc3)cc2)CC1; X79 = O=C(O)C1CCCC(C(=O)Nc2ccc(-c3ccc(C[C@H](N[*:1])C(=O)[*:2])cc3)cc2)C1; X40 = O=C(O)C1CCCCC1C(=O)Nc1ccc(-c2ccc(C[C@H](N[*:1])C(=O)[*:2])cc2)cc1; Bip(4'-NHBz) = N[C@@H](Cc1ccc(-c2ccc(NC(=O)c3ccccc3)cc2)cc1)C(=O)O; Bip(4'-NH) = O=C([C@H](Cc1ccc(-c2ccc(N[*:3])cc2)cc1)N[*:1])[*:2]; X14 = O=C([C@H](Cc1ccc(-c2cccc(C(=O)[*:3])c2)cc1)N[*:1])[*:2]; Bip(4'-COOH) = N[C@@H](Cc1ccc(-c2ccc(C(=O)O)cc2)cc1)C(=O)O; Bip(4'-NHAc) = CC(=O)Nc1ccc(-c2ccc(C[C@H](N)C(=O)O)cc2)cc1; Ala(morpholin-4-yl) = N[C@@H](CN1CCOCC1)C(=O)O; Benzoyl(3-OCH2COOH) = O=C(O)COc1cccc(C(=O)*)c1; Phe(3-CONH2) = NC(=O)c1cccc(C[C@H](N)C(=O)O)c1; Benzoyl(4-Ph) = O=C(c1ccc(-c2ccccc2)cc1)*; Bip = N[C@@H](Cc1ccc(-c2ccccc2)cc1)C(=O)O; X15 = O=C(O)c1cccc(Oc2ccccc2N*)c1; Cya = N[C@@H](CS(=O)(=O)O)C(=O)O; X57 = Cn1c(C(=O)*)cc2c(Cl)cccc21; 2Thi = N[C@@H](Cc1cccs1)C(=O)O; Cha = N[C@@H](CC1CCCCC1)C(=O)O; Chg = N[C@H](C(=O)O)C1CCCCC1; Sar = CNCC(=O)O

The term IC50 denotes the midpoint of a concentration-inhibition curve.

One assay deals with TNFα (Homo sapiens, UniProt P01375). Put plainly: TNF-Induced HEK-Blue Assay. Type of assay: cell-based.
TNFα, sequence (P01375 77-233 limits assumed): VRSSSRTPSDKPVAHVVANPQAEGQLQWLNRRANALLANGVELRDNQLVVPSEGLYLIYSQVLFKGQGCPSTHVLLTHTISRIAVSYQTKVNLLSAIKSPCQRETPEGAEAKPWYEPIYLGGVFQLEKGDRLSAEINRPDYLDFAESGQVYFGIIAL
Conditions: not given
As to `CC[C@H](C)[C@@H]1NC(=O)[C@@H](CCCNC(=N)N)NC(=O)[C@H](CC(=O)O)NC(=O)[C@H](Cc2cnc[nH]2)NC(=O)CN(C)C(=O)[C@H](Cc2ccc(-c3ccc(NC(=O)c4ccccc4)cc3)cc2)NC(=O)[C@H](Cc2ccc(-c3ccccc3)cc2)NC(=O)[C@H](CC2CCCCC2)NC(=O)CSC[C@@H](C(=O)NCC(N)=O)NC(=O)[C@H](CC(C)C)NC(=O)[C@H](Cc2cnc[nH]2)NC(=O)[C@H](C(C)C)NC(=O)[C@@H]2CCCN2C1=O` [Example 315] ({CH2CO}-[Cha][Bip][Bip(4'-NHBz)][Sar]HD[dR]IPVHLCG-NH2; thioether N-13), the IC50 was < 50 nM.

The assay is the same for the next values; noted with them: HEK-Blue-CD40L cells, NF-kB-driven secreted alkaline phosphatase reporter; TNFα 0.5 ng/ml; 18 h; read-out: TNF induced HEK-Blue assay IC50 value.
Take `CC[C@H](C)[C@@H]1NC(=O)[C@@H](CCCNC(=N)N)NC(=O)[C@H](CC(=O)O)NC(=O)[C@H](Cc2cnc[nH]2)NC(=O)CN(C)C(=O)[C@H](Cc2ccc(-c3ccc(NC(=O)c4cccc(C(=O)O)c4)cc3)cc2)NC(=O)[C@H](Cc2ccc(-c3ccccc3)cc2)NC(=O)[C@H](CC2CCCCC2)NC(=O)CSC[C@@H](C(=O)NCC(N)=O)NC(=O)[C@H](CC(C)C)NC(=O)[C@H](Cc2cnc[nH]2)NC(=O)[C@H](C(C)C)NC(=O)[C@@H]2CCCN2C1=O` [Example 305] ({CH2CO}-[Cha][Bip][Bip(4'-(3-HOOC-benzamido))][Sar]HD[dR]IPVHLCG-NH2; thioether N-13): the IC50 was < 50 nM.
On to `CC(C)C[C@@H]1NC(=O)[C@H](CCCNC(=N)N)NC(=O)[C@H](C(C)C)NC(=O)[C@@H]2CCCN2C(=O)[C@H](C(C)C)NC(=O)[C@@H](CCCNC(=N)N)NC(=O)[C@H](CC(=O)O)NC(=O)[C@@H]2CCCN2C(=O)CN(C)C(=O)[C@H](Cc2ccc(-c3cccc(C(=O)Nc4ccccc4Oc4cccc(C(=O)O)c4)c3)cc2)NC(=O)[C@H](Cc2ccc(-c3ccccc3)cc2)NC(=O)[C@H](CN2CCOCC2)NC(=O)CSC[C@@H](C(=O)NCC(N)=O)NC1=O` [Example 306] ({CH2CO}-[Ala(morpholin-4-yl)][Bip][X14](X15)[Sar]PD[dR]VPVRLCG-NH2; thioether N-13), for which the concentration for half-maximal inhibition (IC50) lay in the range of 50 to 200 nM.
Still for that read-out and setting: next, `CC[C@H](C)[C@@H]1NC(=O)[C@@H](CCCNC(=N)N)NC(=O)[C@H](CC(=O)O)NC(=O)[C@H](Cc2cnc[nH]2)NC(=O)CN(C)C(=O)[C@H](Cc2ccc(-c3ccc(NC(=O)c4ccc(-c5ccccc5)cc4)cc3)cc2)NC(=O)[C@H](Cc2ccc(-c3ccccc3)cc2)NC(=O)[C@H](CC2CCCCC2)NC(=O)CSC[C@@H](C(=O)NCC(N)=O)NC(=O)[C@H](CC(C)C)NC(=O)[C@H](Cc2cnc[nH]2)NC(=O)[C@H](C(C)C)NC(=O)[C@@H]2CCCN2C1=O` [Example 307] ({CH2CO}-[Cha][Bip][Bip(4'-NH)](Benzoyl(4-Ph))[Sar]HD[dR]IPVHLCG-NH2; thioether N-13): 50 to 200 nM; `CC[C@H](C)[C@@H]1NC(=O)[C@@H](CCCNC(=N)N)NC(=O)[C@H](CC(=O)O)NC(=O)[C@H](Cc2cnc[nH]2)NC(=O)CN(C)C(=O)[C@H](Cc2ccc(-c3ccc(NC(=O)c4cccc(OCC(=O)O)c4)cc3)cc2)NC(=O)[C@H](Cc2ccc(-c3ccccc3)cc2)NC(=O)[C@H](CC2CCCCC2)NC(=O)CSC[C@@H](C(=O)NCC(N)=O)NC(=O)[C@H](CC(C)C)NC(=O)[C@H](Cc2cnc[nH]2)NC(=O)[C@H](C(C)C)NC(=O)[C@@H]2CCCN2C1=O` [Example 308] ({CH2CO}-[Cha][Bip][Bip(4'-NH)](Benzoyl(3-OCH2COOH))[Sar]HD[dR]IPVHLCG-NH2; thioether N-13): < 50 nM; `CC(=O)Nc1ccc(-c2ccc(C[C@@H]3NC(=O)[C@H](Cc4ccc(-c5ccccc5)cc4)NC(=O)[C@H](CC4CCCCC4)NC(=O)CSC[C@@H](C(=O)NCC(N)=O)NC(=O)[C@H](CC(C)C)NC(=O)[C@H](Cc4ccc(O)cc4)NC(=O)[C@H](C(C)C)NC(=O)[C@@H]4CCCN4C(=O)[C@H](C(C)C)NC(=O)[C@@H](CCCNC(=N)N)NC(=O)[C@H](CS(=O)(=O)O)NC(=O)[C@@H]4CCCN4C(=O)CN(C)C3=O)cc2)cc1` [Example 309] ({CH2CO}-[Cha][Bip][Bip(4'-NHAc)][Sar]P[Cya][dR]VPVYLCG-NH2; thioether N-13): 50 to 200 nM.
Still for that read-out and setting: the value for `CC(=O)Nc1ccc(-c2ccc(C[C@@H]3NC(=O)[C@H](Cc4ccc(-c5ccccc5)cc4)NC(=O)[C@H](CC4CCCCC4)NC(=O)CSC[C@@H](C(=O)NCC(N)=O)NC(=O)[C@H](CC(C)C)NC(=O)[C@H](Cc4ccc(O)cc4)NC(=O)[C@H](C4CCCCC4)NC(=O)[C@@H]4CCCN4C(=O)[C@H](C(C)C)NC(=O)[C@@H](CCCNC(=N)N)NC(=O)[C@H](CC(=O)O)NC(=O)[C@@H]4CCCN4C(=O)CN(C)C3=O)cc2)cc1` [Example 310] ({CH2CO}-[Cha][Bip][Bip(4'-NHAc)][Sar]PD[dR]VP[Chg]YLCG-NH2; thioether N-13) was 50 to 200 nM.
On the same count and under the same terms, the value for `CC(=O)Nc1ccc(-c2ccc(C[C@@H]3NC(=O)[C@H](Cc4ccc(-c5ccccc5)cc4)NC(=O)[C@H](CN4CCOCC4)NC(=O)CSC[C@@H](C(=O)NCC(N)=O)NC(=O)[C@H](CC(C)C)NC(=O)[C@H](Cc4cccc(C(N)=O)c4)NC(=O)[C@H](C(C)C)NC(=O)[C@@H]4CCCN4C(=O)[C@H](C(C)C)NC(=O)[C@@H](CCCNC(=N)N)NC(=O)[C@H](CC(=O)O)NC(=O)[C@@H]4CCCN4C(=O)CN(C)C3=O)cc2)cc1` [Example 311] ({CH2CO}-[Ala(morpholin-4-yl)][Bip][Bip(4'-NHAc)][Sar]PD[dR]VPV[Phe(3-CONH2)]LCG-NH2; thioether N-13) was 50 to 200 nM.
`CC(=O)Nc1ccc(-c2ccc(C[C@@H]3NC(=O)[C@H](Cc4ccc(-c5ccccc5)cc4)NC(=O)[C@H](CN4CCOCC4)NC(=O)CSC[C@@H](C(=O)NCC(N)=O)NC(=O)[C@H](CC(C)C)NC(=O)[C@H](Cc4cccc(C(N)=O)c4)NC(=O)[C@H](C4CCCCC4)NC(=O)[C@@H]4CCCN4C(=O)[C@H](C(C)C)NC(=O)[C@@H](CCCNC(=N)N)NC(=O)[C@H](CC(=O)O)NC(=O)[C@@H]4CCCN4C(=O)CN(C)C3=O)cc2)cc1` [Example 312] ({CH2CO}-[Ala(morpholin-4-yl)][Bip][Bip(4'-NHAc)][Sar]PD[dR]VP[Chg][Phe(3-CONH2)]LCG-NH2; thioether N-13): the IC50 fell in the range of 200 to 2000 nM.
`CC(=O)Nc1ccc(-c2ccc(C[C@@H]3NC(=O)[C@H](Cc4ccc(-c5ccc(C(=O)O)cc5)cc4)NC(=O)[C@H](CN4CCOCC4)NC(=O)CSC[C@@H](C(=O)NCC(N)=O)NC(=O)[C@H](CC(C)C)NC(=O)[C@H](Cc4cccc(C(N)=O)c4)NC(=O)[C@H](C(C)C)NC(=O)[C@@H]4CCCN4C(=O)[C@H](C(C)C)NC(=O)[C@@H](CCCNC(=N)N)NC(=O)[C@H](CC(=O)O)NC(=O)[C@@H]4CCCN4C(=O)CN(C)C3=O)cc2)cc1` [Example 313] ({CH2CO}-[Ala(morpholin-4-yl)][Bip(4'-COOH)][Bip(4'-NHAc)][Sar]PD[dR]VPV[Phe(3-CONH2)]LCG-NH2; thioether N-13): the 50% inhibitory concentration (IC50) lay within 200 to 2000 nM.
Regarding `CC(=O)Nc1ccc(-c2ccc(C[C@@H]3NC(=O)[C@H](Cc4ccc(-c5ccc(C(=O)O)cc5)cc4)NC(=O)[C@H](CN4CCOCC4)NC(=O)CSC[C@@H](C(=O)NCC(N)=O)NC(=O)[C@H](CC(C)C)NC(=O)[C@H](Cc4cccs4)NC(=O)[C@H](C4CCCCC4)NC(=O)[C@@H]4CCCN4C(=O)[C@H](C(C)C)NC(=O)[C@@H](CCCNC(=N)N)NC(=O)[C@H](CC(=O)O)NC(=O)[C@@H]4CCCN4C(=O)CN(C)C3=O)cc2)cc1` [Example 314] ({CH2CO}-[Ala(morpholin-4-yl)][Bip(4'-COOH)][Bip(4'-NHAc)][Sar]PD[dR]VP[Chg][2Thi]LCG-NH2; thioether N-13), the IC50 lay in the range of 200 to 2000 nM.
Same read-out and setting: the value for `CC[C@H](C)[C@@H]1NC(=O)[C@@H](CCCNC(=N)N)NC(=O)[C@H](CC(=O)O)NC(=O)[C@H](Cc2cnc[nH]2)NC(=O)CN(C)C(=O)[C@H](Cc2ccc(-c3ccc(NC(=O)C4CCC(C(=O)O)CC4)cc3)cc2)NC(=O)[C@H](Cc2ccc(-c3ccccc3)cc2)NC(=O)[C@H](CC2CCCCC2)NC(=O)CSC[C@@H](C(=O)NCC(N)=O)NC(=O)[C@H](CC(C)C)NC(=O)[C@H](Cc2cnc[nH]2)NC(=O)[C@H](C(C)C)NC(=O)[C@@H]2CCCN2C1=O` (stereo partly drawn) [Example 316] ({CH2CO}-[Cha][Bip][X38][Sar]HD[dR]IPVHLCG-NH2; thioether N-13) was 50 to 200 nM; that for `CC[C@H](C)[C@@H]1NC(=O)[C@@H](CCCNC(=N)N)NC(=O)[C@H](CC(=O)O)NC(=O)[C@H](Cc2cnc[nH]2)NC(=O)CN(C)C(=O)[C@H](Cc2ccc(-c3ccc(NC(=O)C4CCCC(C(=O)O)C4)cc3)cc2)NC(=O)[C@H](Cc2ccc(-c3ccccc3)cc2)NC(=O)[C@H](CC2CCCCC2)NC(=O)CSC[C@@H](C(=O)NCC(N)=O)NC(=O)[C@H](CC(C)C)NC(=O)[C@H](Cc2cnc[nH]2)NC(=O)[C@H](C(C)C)NC(=O)[C@@H]2CCCN2C1=O` (stereo partly drawn) [Example 317] ({CH2CO}-[Cha][Bip][X79][Sar]HD[dR]IPVHLCG-NH2; thioether N-13) was 50 to 200 nM.
On the same count and under the same terms, next, `CC[C@H](C)[C@@H]1NC(=O)[C@@H](CCCNC(=N)N)NC(=O)[C@H](CC(=O)O)NC(=O)[C@H](Cc2cnc[nH]2)NC(=O)CN(C)C(=O)[C@H](Cc2ccc(-c3ccc(NC(=O)C4CCCCC4C(=O)O)cc3)cc2)NC(=O)[C@H](Cc2ccc(-c3ccccc3)cc2)NC(=O)[C@H](CC2CCCCC2)NC(=O)CSC[C@@H](C(=O)NCC(N)=O)NC(=O)[C@H](CC(C)C)NC(=O)[C@H](Cc2cnc[nH]2)NC(=O)[C@H](C(C)C)NC(=O)[C@@H]2CCCN2C1=O` (stereo partly drawn) [Example 318] ({CH2CO}-[Cha][Bip][X40][Sar]HD[dR]IPVHLCG-NH2; thioether N-13): 50 to 200 nM; `CC[C@H](C)[C@@H]1NC(=O)[C@@H](CCCNC(=N)N)NC(=O)[C@H](CC(=O)O)NC(=O)[C@H](Cc2cnc[nH]2)NC(=O)CN(C)C(=O)[C@H](Cc2ccc(-c3ccc(NC(=O)c4cc5c(Cl)cccc5n4C)cc3)cc2)NC(=O)[C@H](Cc2ccc(-c3ccccc3)cc2)NC(=O)[C@H](CC2CCCCC2)NC(=O)CSC[C@@H](C(=O)NCC(N)=O)NC(=O)[C@H](CC(C)C)NC(=O)[C@H](Cc2cnc[nH]2)NC(=O)[C@H](C(C)C)NC(=O)[C@@H]2CCCN2C1=O` [Example 319] ({CH2CO}-[Cha][Bip][Bip(4'-NH)](X57)[Sar]HD[dR]IPVHLCG-NH2; thioether N-13): 50 to 200 nM.
